The source made the active and inactive calls. The calls are words filed in the database; no cut-off is given here.
Columns and labels:
Staphylococcus aureus [1] = assay: Antimicrobial activity against Staphylococcus aureus ATCC 13709a; assay type: functional
Escherichia coli [2] = assay: Antimicrobial activity against Escherichia coli ATCC 9637 at 1000 ug/ml; assay type: functional, organism-based
[3] = tested on: Salmonella enterica subsp. enterica serovar Gallinarum; assay: Antimicrobial activity against Salmonella gallinarum ATCC 9184 at 1000 ug/ml; assay type: functional, organism-based
[4] = tested on: Mycolicibacterium smegmatis; assay: Antimicrobial activity against Mycobacterium smegmatis ATCC 607; assay type: functional
Candida albicans [5] = assay: Antimicrobial activity against Candida albicans ATCC 10231; assay type: functional
Klebsiella pneumoniae [6] = assay: Antimicrobial activity against Klebsiella pneumoniae ATCC 10031; assay type: functional
Klebsiella pneumoniae [7] = assay: Antimicrobial activity against Klebsiella pneumoniae ATCC 10031 at 1000 ug/ml; assay type: functional, organism-based
Candida albicans [8] = assay: Antimicrobial activity against Candida albicans ATCC 10231 at 1000 ug/ml; assay type: functional, organism-based
[9] = tested on: Salmonella enterica subsp. enterica serovar Gallinarum; assay: Antimicrobial activity against Salmonella gallinarum ATCC 9184; assay type: functional
Staphylococcus aureus [10] = assay: Antimicrobial activity against Staphylococcus aureus ATCC 13709a at 1000 ug/ml; assay type: functional, organism-based
[11] = tested on: Mycolicibacterium smegmatis; assay: Antimicrobial activity against Mycobacterium smegmatis ATCC 607 at 1000 ug/ml; assay type: functional, organism-based
Escherichia coli [12] = assay: Antimicrobial activity against Escherichia coli ATCC 9637; assay type: functional

Compound | Activity (Staphylococcus aureus [1]) [µg/mL] | Activity (Escherichia coli [2]) | Activity [3] | Activity [4] [µg/mL] | Activity (Candida albicans [5]) [µg/mL] | Activity (Klebsiella pneumoniae [6]) [µg/mL] | Activity (Klebsiella pneumoniae [7]) | Activity (Candida albicans [8]) | Activity [9] [µg/mL] | Activity (Staphylococcus aureus [10]) | Activity [11] | Activity (Escherichia coli [12]) [µg/mL]
COc1ccc2cc1Oc1ccc(cc1)C[C@H]1c3c(c(O)c(OC)c(OC)c3Oc3cc4c(cc3OC)CCN(C)[C@H]4C2)CCN1C [THALIGOSINE] | 100 | inactive | inactive | 100 | 1000 |  |  |  |  |  |  | 
CCOc1c2c3c(c(OC)c1OC)Oc1cc4c(cc1OC)CCN(C)[C@H]4Cc1ccc(OC)c(c1)Oc1ccc(cc1)C[C@@H]3N(C)CC2 [THALIGOSINE ETHYL ETHER] | 100 | inactive | inactive | 100 | 100 | 1000 |  |  |  |  |  | 
COc1cc2c(cc1O)[C@H](Cc1ccc(OC)c(Oc3ccc(C[C@H]4c5cc(OC)c(OC)cc5CCN4C)cc3)c1)N(C)CC2 [NEOTHALIBRINE] | 1000 | inactive | inactive | 1000 |  |  | inactive | inactive |  |  |  | 
COc1cc(CCN(C)C)c2ccc3cc4c(cc3c2c1OC)OCO4 [THALICTHUBERINEC] | 100 | inactive |  | 25 | 50 | 1000 |  |  | 1000 |  |  | 
O=C1NCCc2cc3c(cc21)OCO3 |  | inactive | inactive |  |  |  | inactive | inactive |  | inactive | inactive | 
COc1cc2c3c(c1O)Oc1c4c(cc(OC)c1OC)[C@H](Cc1ccc(cc1)Oc1cc(ccc1O)C[C@@H]3N(C)CC2)N(C)CC4 [THALIGOSIDINE] | 1000 | inactive | inactive | 100 | 1000 |  | inactive |  |  |  |  | 
COc1cc2c(cc1O)[C@H](Cc1ccc(OC)c(Oc3ccc(C[C@H]4c5cc(OC)c(OC)c(O)c5CCN4C)cc3)c1)N(C)CC2 [THALIRUGINE] | 1000 | inactive | inactive | 1000 |  |  | inactive | inactive |  |  |  | 
CN[C@@H]1[C@H](O[C@H]2[C@H](O[C@H]3[C@H](O)[C@@H](O)[C@H](N=C(N)N)[C@@H](O)[C@@H]3N=C(N)N)O[C@@H](C)[C@]2(O)C=O)O[C@@H](CO)[C@H](O)[C@H]1O [STREPTOMYCIN] | 3.1 |  |  | 0.78 |  | 1.56 |  | inactive | 25 |  |  | 12.5
COc1cc2c3cc1Oc1c(OC)c(OC)c(OC)c4c1[C@H](Cc1ccc(cc1)Oc1cc(ccc1O)C[C@@H]3N(C)CC2)N(C)CC4 [THALIGOSININE] | 1000 | inactive | inactive | 1000 |  | 1000 | inactive | inactive |  |  |  | 
COc1ccc(C[C@H]2c3cc(OC)c(OC)c(O)c3CCN2C)cc1Oc1ccc(C[C@H]2c3cc(OC)c(OC)c(O)c3CCN2C)cc1 [THALIRUGIDINE] | 1000 | inactive | inactive | 1000 |  |  | inactive | inactive |  |  |  | 
